Source: ChEMBL document CHEMBL3046960, “Are traditional neem extract preparations as efficient as a commercial formulation of azadirachtin A?” (2011)

Columns and labels:
Type in all cases: functional
Spodoptera littoralis = assay: Insecticidal activity against third to fourth instar larvae Spodoptera littoralis in broad bean plant assessed as mortality rate at 25 mg/L (reference value: 33.3%)
[1] = system: Macrosteles quadripunctulatus; assay: Insecticidal activity against third to fourth-instar nymphs stage Macrosteles quadripunctulatus assessed as mortality rate at 25 mg/L (reference value: 11.4%)
Bemisia tabaci = assay: Insecticidal activity against Bemisia tabaci (sweet potato whitefly) in cucumber plant assessed as mortality rate at 25 mg/L relative to control

Row | Structure (SMILES) | mortality at 25 µg/mL (Spodoptera littoralis) [%] | mortality at 25 µg/mL [1] [%] | mortality at 25 µg/mL (Bemisia tabaci) [%]
1 | C/C=C(\C)C(=O)O[C@H]1C[C@@H](OC(C)=O)[C@@]2(C(=O)OC)CO[C@H]3[C@@H](O)[C@@](C)([C@]45O[C@@]4(C)[C@H]4C[C@@H]5O[C@@H]5OC=C[C@@]54O)[C@H]4[C@]1(CO[C@]4(O)C(=O)OC)[C@@H]32 [AZADIRACTIN] | 100 | 85.7 | 94.1
2 | C/C=C(\C)C(=O)O[C@H]1C[C@@H](OC(C)=O)[C@@]2(C(=O)OC)CO[C@H]3[C@@H](O)[C@@](C)([C@]45O[C@@]4(C)[C@@H]4C[C@H]5O[C@@H]5OC=C[C@@]54O)[C@H]4[C@]1(CO[C@]4(O)C(=O)OC)[C@@H]32 [AZADIRACHTIN A] | 83.5 | 30 | 82.8
